Marks after values point to notes of the source that are not given here.
What was measured:
NZB/W F1 female mice [1] = experiment: Serum chemistry after long-term administration; format: in vivo, mouse; conditions: serum at autopsy
Experimental: (§1) 80 NZB/W F1 female mice (four weeks old) were purchased from Jackson Laboratory and maintained in an SPF breeding room with five mice per cage. Their weight and urine protein were measured at 24 weeks after birth (right before administration), and then all the animals except those having too much urine protein were divided into groups as shown in a table 2 below such that the urine protein and weight might be evenly distributed among the groups.
(§2) Then, the mice were administered as described in the table 2 once a day for about 19 weeks from 24 weeks after birth to 42 weeks after birth.
Data obtained from groups were compared using a Kruskal-Wallis (†p<0.05), *p<0.05 versus C group (Mann-Whitney U-test), ALT: alanine aminotransferase, AST: aspartate aminotransferase, ALP: alkaline phosphatase, TBIL: total bilirubin, TCHOL: total cholesterol, TG: triglyceride, TP: total protein, CPK: creatine phosphokinase)

NZB/W F1 female mice [2] = experiment: T cell populations in spleen (FACS) in SLE disease mouse; format: in vivo
NZB/W F1 female mice [3] = experiment: Serum cytokine level (Milliplex MAP kit) in SLE disease mouse; format: in vivo
Experimental: as §1, §2
(§3) The fresh urine of mice was collected before and after administration every two weeks, while blood collection was performed before and after administration every four weeks. The serum was prepared by centrifugation of the collected blood and then kept at −70° C.
To analyze an effect of the inventive pharmaceutical composition on a change in a serum cytokine level in the SLE disease mouse, a level of GM-CSF, IFN-γ, IL-1α, IL-1β, IL-10, IL-12(p70), IL-15, IL-17a, IL-2, IL-4, IL-6, TNF-α, […], IL-22 and IL-23 in serum was measured by means of a Mouse cytokine Milliplex MAP kit (Merck Millipore), wherein the results thereof were shown in a table 3.
Data obtained from groups were compared using a Kruskal-Wallis (†p<0.05) *p<0.05 versus C group (Mann-Whitney U-test)

NZB/W F1 female mice [4] = experiment: Proteinuria and UP/C in SLE model mouse; format: in vivo; conditions: for incidence rate of severe proteinuria of 300 mg/dl or more: 42 weeks old
Experimental: as §1, §2, §3
A urine creatinine concentration was obtained by diluting the urine 100-fold, then measuring the concentration thereof by means of a serum chemistry analyzer (Dri-CHEM 3000 colorimetric analyzer, Fujifilm), and then calibrating the measured value using a dilution factor.

NZB/W F1 female mice [5] = experiment: Survival rate in SLE model mouse; format: in vivo; conditions: for survival rate: 42 weeks after birth
Experimental: as §1, §2
An NZB/W F1 female mouse is used as a human SLE disease model. If not treated at all, it is known that this model falls dead all after 12 months or so (about 52 weeks old) due to immune-complex glomerulonephritis.

NZB/W F1 female mice [6] = experiment: Serum anti-dsDNA antibodies (ELISA) in SLE model mouse; format: in vivo
Experimental: as §1, §2, §3
To identify if the pharmaceutical composition according to the present invention may reduce an increased concentration of anti-dsDNA antibodies shown in the SLE model animal, a concentration of anti-dsDNA antibodies in mouse serum was measured by means of a mouse anti-dsDNA ELISA (enzyme-linked immunosorbent assay) kit (Shibayagi).

NZB/W F1 female mice [7] = experiment: Immunoglobulin isotypes in serum (Luminex); format: in vivo, mouse; conditions: 50 mg/kg dosed group vs negative control
Experimental: as §1, §2
A concentration of immunoglobulin isotypes (IgG1, IgG2a, IgG2b, IgG3 and IgM) in the serum obtained during the mouse autopsy was measured by means of Luminex assay kit for mouse isotype (R&D systems, Minneapolis, Minn.).

[8] = 50 mg/kg dosed group vs negative control
[9] = group D, 10 mg/kg/day i.p., n =10
[10] = group E, 30 mg/kg/day i.p., n = 14
[11] = group F, 50 mg/kg/day i.p., n = 14
[12] = mice of the experimental groups

## O=C(NO)c1ccc(CN(C(=O)N2CCOCC2)c2cccc(C(F)(F)F)c2)cc1 [Compound 374, N-(4-(hydroxycarbamoyl)benzyl)-N-(3-(trifluoromethyl)phenyl)morpholine-4-carboxamide]
NZB/W F1 female mice [1]; group D, 10 mg/kg/day i.p.
  ALP: 187.44 ± 20.75 U/I
  ALT: 18.10 ± 1.72 U/I
  AST: 44.20 ± 3.19 U/I
  Albumin: 1.91 ± 0.14 g/dL
  CPK: 86.70 ± 17.99 U/I
  Ca: 10.08 ± 0.40 mg/dL
  Glucose: 162.56 ± 9.36 mg/dL
  TBIL: 0.22 ± 0.03 mg/dL
  TCHOL: 193.60 ± 34.55 mg/dL
  TG: 241.00 ± 35.25 mg/dL
  TP: 4.74 ± 0.20 g/dL
NZB/W F1 female mice [1]; group E, 30 mg/kg/day i.p.
  ALP: 155.92 ± 5.53* U/I
  ALT: 20.79 ± 0.78* U/I
  AST: 55.21 ± 5.17* U/I
  Albumin: 2.19 ± 0.11 g/dL
  CPK: 84.71 ± 8.39 U/I
  Ca: 9.65 ± 0.19 mg/dL
  Glucose: 191.29 ± 7.33* mg/dl
  TBIL: 0.26 ± 0.03 mg/dL
  TCHOL: 140.07 ± 14.48 mg/dL
  TG: 240.86 ± 56.19* mg/dl
  TP: 5.21 ± 0.19 g/dL
NZB/W F1 female mice [1]; group F, 50 mg/kg/day i.p.
  ALP: 153.08 ± 4.78 U/I
  ALT: 29.07 ± 3.26* U/I
  AST: 59.00 ± 15.00 U/I
  Albumin: 2.26 ± 0.09* g/dl
  CPK: 125.86 ± 47.35 U/I
  Ca: 9.43 ± 0.16 mg/dL
  Glucose: 200.23 ± 3.91* mg/dl
  TBIL: 0.28 ± 0.04 mg/dL
  TCHOL: 129.57 ± 8.98 mg/dL
  TG: 183.29 ± 15.00 mg/dL
  TP: 5.35 ± 0.16* g/dl
NZB/W F1 female mice [2]; 10 mg/kg dosed group, vs negative control
  decrease of ratio of CD138+ cells: 21.2%
NZB/W F1 female mice [2]; 30 mg/kg dosed group, vs negative control
  decrease of ratio of CD138+ cells: 25.2%
NZB/W F1 female mice [2]; [8]
  decrease of ratio of CD138+ cells: 31.6%
NZB/W F1 female mice [3]; [9]
  GM-CSF in serum: 2.65 ± 2.65 pg/mL
  IFN-γ in serum: 1.06 ± 1.06 pg/mL
  IL17 in serum: 10.40 ± 3.86 pg/mL
  IL22 in serum: 27.05 ± 9.95 pg/mL
  IL-1α in serum: 371.96 ± 82.72 pg/mL
  IL-1β in serum: 1.27 ± 0.65 pg/mL
  IL-2 in serum: 1.91 ± 1.77 pg/mL
  IL-4 in serum: 1.74 ± 0.19 pg/mL
  IL-6 in serum: 7.21 ± 2.34 pg/mL
  IL-10 in serum: 25.00 ± 8.01 pg/mL
  IL-12(70) in serum: 1.94 ± 1.17 pg/mL
  IL-15 in serum: 184.36 ± 88.58 pg/mL
  IL-23 in serum: 1.96 ± 1.96 pg/mL
  TGF-β in serum: 73356.45 ± 7258.05 pg/mL
  TNF-α in serum: 7.91 ± 2.67 pg/mL
NZB/W F1 female mice [3]; [10]
  GM-CSF in serum: 5.32 ± 4.06 pg/mL
  IFN-γ in serum: 6.60 ± 4.07 pg/mL
  IL17 in serum: 21.14 ± 14.59 pg/mL
  IL22 in serum: 13.00 ± 4.40 pg/mL
  IL-1α in serum: 458.40 ± 90.79 pg/mL
  IL-1β in serum: 74.66 ± 70.56 pg/mL
  IL-2 in serum: 9.32 ± 4.75 pg/mL
  IL-4 in serum: 8.60 ± 6.80 pg/mL
  IL-6 in serum: 21.23 ± 13.62 pg/mL
  IL-10 in serum: 56.55 ± 39.16 pg/mL
  IL-12(70) in serum: 74.50 ± 63.63 pg/mL
  IL-15 in serum: 162.41 ± 53.62 pg/mL
  IL-23 in serum: 100.56 ± 100.56 pg/mL
  TGF-β in serum: 58807.36 ± 6685.72 pg/mL
  TNF-α in serum: 16.25 ± 13.46 pg/mL
NZB/W F1 female mice [3]; [11]
  GM-CSF in serum: 1.89 ± 1.89 pg/mL
  IFN-γ in serum: 2.07 ± 1.44 pg/mL
  IL-1α in serum: 629.16 ± 128.47 pg/mL
  IL-1β in serum: 3.86 ± 2.09 pg/mL
  IL-2 in serum: 4.09 ± 2.63 pg/mL
  IL-4 in serum: 3.70 ± 1.73 pg/mL
  IL-6 in serum: 5.69 ± 2.39 pg/mL
  IL-12(70) in serum: 15.62 ± 12.09 pg/mL
  IL-23 in serum: 41.34 ± 41.34 pg/mL
NZB/W F1 female mice [3]; [12]
  TGF-β level: increased
  serum concentration of IL-10: decreased
  serum concentration of IL-12: decreased
  serum concentration of IL-15: decreased
  serum concentration of IL-17: decreased
  serum concentration of IL-22: decreased
  serum concentration of TNF-α: decreased
NZB/W F1 female mice [4]; 10 mg/kg dosed group
  incidence rate of severe proteinuria of 300 mg/dl or more: 60%
NZB/W F1 female mice [4]; 30 mg/kg dosed group
  incidence rate of severe proteinuria of 300 mg/dl or more: 6.7%
NZB/W F1 female mice [4]; 50 mg/kg dosed group
  incidence rate of severe proteinuria of 300 mg/dl or more: 0%
NZB/W F1 female mice [4]; 36-week old, all the experimental groups
  UP/C (ratio of urine protein:creatine): remarkably decreased
NZB/W F1 female mice [4]; 42-week old, all experimental groups except the 10 mg/kg dosed group, vs negative control
  UP/C value: decreased more
NZB/W F1 female mice [4]; experimental groups, 24 to 42 week after birth
  incidence rate of severe proteinuria: remarkably improved
NZB/W F1 female mice [5]; 10 mg/kg dosed group
  survival rate: about 73.3%
NZB/W F1 female mice [5]; 30 mg/kg dosed group
  survival rate: about 93.3%
NZB/W F1 female mice [5]; 50 mg/kg dosed group
  survival rate: about 93.3%
NZB/W F1 female mice [5]; experimental groups (10, 30, 50 mg/kg), vs negative control
  survival rate pattern: better recovery pattern
NZB/W F1 female mice [6]; [8]
  decrease of serum concentration of anti-dsDNA antibodies: two-fold
NZB/W F1 female mice [6]; after 28 week after birth, all the experimental groups, vs negative control
  serum concentration of anti-dsDNA antibodies: tended to decrease more
NZB/W F1 female mice [7]
  concentration of IgG1 in serum: decreased
  concentration of IgG2a in serum: decreased
  concentration of IgG2b in serum: decreased
  concentration of IgG3 in serum: decreased
  concentration of IgM in serum: remarkably decreased

Reference: patent US11571426B2, “Compositions for preventing or treating lupus” (CHONG KUN DANG PHARMACEUTICAL CORP., priority 2017, dated 2023)
